According to patent US20250332152A1, “INHALED THERAPY FOR CARDIAC ARRHYTHMIA” (InCarda Therapeutics, Inc., priority 2021, published 2025):

What was measured:
[1] = test system: recent-onset symptomatic AF; assay: Clinical study: cardioversion of recent-onset atrial fibrillation to sinus rhythm with orally inhaled flecainide; format: in vivo, human; conditions: 120 mg flecainide acetate (eTLD) by oral inhalation; for conversion rate (AF to sinus rhythm): cardioversion success at 90 minutes post-dose
Description: A flecainide acetate oral inhalation solution for acute cardioversion of recent-onset symptomatic AF was administered to 80 patients to determine if height, weight, and body mass index (BMI) are predictors of successful cardioversion of AF to sinus rhythm (SR) with the inhalation solution.
The flecainide formulation used in this study is described in TABLE 1.
In this study, for inhalation delivery of flecainide, an estimated total lung dose (eTLD) of 120 mg were calculated to account for losses of flecainide in the inhalation device and losses of flecainide in subjects' mouth and throat. An 120 mg eTLD was thereby used to denote the dose that actually reached the lungs of the subjects. By design, in all nebulizers there can be a residual volume or mass of drug solution that stays in the nebulizer, and there can also be a percentage of the aerosol caught by subject's throat and mouth. For instance, in this study, it was estimated that 30% of the aerosol was lost in subject's throat and mouth. Therefore the eTLD would be: eTLD=(100-30) %*amount of aerosolized drug that left nebulizer=70%*(amount of drug placed in nebulizer−amount of drug staying in nebulizer).
The AeroEclipse®II BAN inhaler was used for nebulization and inhalation of the exemplary flecainide formulations. It is available as an approved device in several countries across the world including European countries, USA, and Canada. The inhaler is a hand-held, breath actuated, jet nebulizer which operates through a source of compressed air available as medical air in the hospital ER. The AeroEclipse®BAN delivers a high respirable dose and an optimal particle size to reach the deeper lung regions to enable faster drug absorption. Flecainide acetate inhalation solution was transferred from the vial into the reservoir of the AeroEclipse®II BAN at a volume corresponding to the required dose to the lung. To administer an estimated total lung dose of […] flecainide acetate, the nebulizer was filled with 4.2 mL of Formulation A described in TABLE 1. The total volume filled in each dosing cup was based on the assumption of a 70% (v/v) lung deposition, a 12.5% (v/v) loss due to fugitive aerosol based on in-vitro experiments, and device retention of approximately 1.5 mL of the solution.
Participants in the study were administered the study medications according to the following guidelines: • Subject self-administers inhalation using the AeroEclipse® II BAN • Subject is seated upright in a comfortable chair or adjustable bed with table that has adjustable height in front (e.g. overbed table on casters) where the subject can rest his/her arms (e.g. overbed table on casters) from approximately 30 minutes prior to the start of inhalation up to at least 15 minutes after the last inhalation is completed. […]

[2] = Flecainide peak plasma concentration (Cmax) versus BMI classification in atrial fibrillation patients; format: in vivo, human; conditions: atrial fibrillation patients (n=81); 120 mg flecainide acetate via oral inhalation; both conversion and no conversion cohorts
Description: Logistic regression was performed to identify predictors of cardioversion success at 90 minutes post-dose, and potential interactions were examined by linear regression.
FIG. 6 is a chart depicting median Cmax versus BMI classification (normal (BMI<25), overweight (BMI≥25 and <30), obese/severe obese (BMI≥30)) in atrial fibrillation patients (n=81) administered 120 mg flecainide acetate via oral inhalation.

[3] = Solubility of flecainide acetate in water solution; format: physicochemical

Compound: O=C(NCC1CCCCN1)c1cc(OCC(F)(F)F)ccc1OCC(F)(F)F (stereo not drawn) [flecainide acetate]
- conversion rate (AF to sinus rhythm) ([1]; obese patients (BMI≥30 and <35 kg/m^2)): 43%
- conversion rate (AF to sinus rhythm) ([1]; overweight patients (BMI≥25 and <30 kg/m^2)): 47%
- conversion rate (AF to sinus rhythm) ([1]; patients with normal BMI (<25 kg/m^2)): 53%
- AF successfully converted to sinus rhythm ([1]; severely obese patients, 90 minutes post-dose): none
- median flecainide peak plasma concentration (Cmax) versus BMI category [2]: positive correlation
- solubility [3]: ~60 mg/mL
